Experiment [1] has as its target T1, recombinant human PKM2 (Homo sapiens, UniProt P14618).
T1 construct: His (N); purchased R&D Systems
In words: Human PKM2 activation assay (Kinase-Glo Plus luminescent detection of generated ATP). Format: biochemical. The note with it: for Emax: percentage activation normalised to DMSO vehicle (LOW) and 5 μM TEPP-46 (HIGH), read-out: hPKM2 Emax; for pEC50: recombinant human PKM2 activation, 4-parameter logistic fit, read-out: hPKM2 EC50. A digest of the protocol:
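N-His-tagged recombinant hPKM2 ([…]) with PEP and ADP was incubated with compound for 60 min at 26 °C, shaking, in 50 mM imidazole, 50 mM KCl, 7 mM MgCl2, 0.01% Tween20, 0.05% BSA, pH 7.2. ATP produced was read by Kinase-Glo Plus luminescence after 15 min.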
On the technique in general: Kinase-Glo measures the ATP left after a reaction by luminescence.

Experiment [2] has as its system A549 cells. In words: A549 cell proliferation in low-serine medium (CellTiter-Glo 2.0 viable cell number). The experiment is classed as cell-based. The note with it: Homo sapiens, 72 h, 3 days, Assay Medium with 20 μM L-serine. How it is done:
The effect of compounds of Formula (Ia) on A549 cell proliferation in low-serine medium was assessed using a luminescence assay of viable cell number (CellTiter-Glo® 2.0, Promega) duplexed with a fluorescent cytotoxicity assessment (CelITox™ Green, Promega). Cell culture reagents were from ThermoFisher unless specified otherwise. Assay reagents were from Sigma-Aldrich unless specified otherwise. Test Compounds were prepared as 10 mM DMSO stocks and dilution series prepared in DMSO for direct dilution into culture medium.
Cells were passaged every 3-4 days at 80-90% confluence. The cell monolayer was washed twice with room-temperature Ca^2+/Mg-free PBS and 4 ml room-temperature trypsin-EDTA added to the flask. After 5 minutes' incubation (37° C., 5% CO2) to detach cells, trypsin was quenched with 13 ml warmed complete growth medium and the cells harvested and diluted to 2.4×10^4 cells/ml for dispensing into 384-well clear-bottom black-walled plates (600 cells/well).
Following overnight incubation, growth medium was aspirated from each well and the cells washed twice with Assay Medium comprising Basal Medium Eagle supplemented with 3% heat-inactivated dialysed FBS plus 2 mM L-glutamine plus 20 μM L-serine (Sigma-Aldrich). After aspiration of the final wash medium, Assay Medium containing Test Compound was added to each well. DMSO vehicle controls were included on each plate.
Cells were incubated for 3 days in a humidified incubator (37° C., 5% CO2) at which point CelITox™ Green and CellTiter-Glo® reagents were prepared according to the manufacturer's instructions. Triton-X was added to HIGH wells for cytotoxicity determination and the plate incubated for 30 minutes (20° C., ambient humidity and pCO2). CelITox™ Green reagent was added to each well and the plate covered, placed on an orbital shaker @450 rpm for 2 minutes, and incubated in the dark for 15 minutes (20° C., ambient humidity and pCO2). Endpoint fluorescence was measured using a plate reader (PHERAstar® FSX, BMG Labtech).
Following cytotoxicity determination, CellTiter-Glo® reagent was added to each well and the plate placed on an orbital shaker @450 rpm for 2 minutes to lyse cells. Plates were incubated in the dark for 15-30 minutes (20° C., ambient humidity and pCO2) prior to endpoint luminescence measurement (PHERAstar® FSX, BMG Labtech).
Proliferation was calculated by normalizing luminescence signals to LOW controls obtained from a parallel plate processed at the time of Test Compound challenge and HIGH (DMSO vehicle) wells from the compound plate. IC50 values were determined from a 4-parameter logistic fit of compound concentration-response curves.
A general note: ATP-based viability assays read luminescence as a measure of living cells.

As a reminder, the Emax is the greatest response seen or fitted, relative to the assay's reference. As usually defined, the pEC50 is the negative decadic logarithm of the EC50, by convention in mol/L. A word on the pIC50: it is the negative decadic logarithm of the IC50, by convention in mol/L.

pEC50, pIC50: −log10 of the molar value.

T1 sequence (P14618 2-531 limits assumed): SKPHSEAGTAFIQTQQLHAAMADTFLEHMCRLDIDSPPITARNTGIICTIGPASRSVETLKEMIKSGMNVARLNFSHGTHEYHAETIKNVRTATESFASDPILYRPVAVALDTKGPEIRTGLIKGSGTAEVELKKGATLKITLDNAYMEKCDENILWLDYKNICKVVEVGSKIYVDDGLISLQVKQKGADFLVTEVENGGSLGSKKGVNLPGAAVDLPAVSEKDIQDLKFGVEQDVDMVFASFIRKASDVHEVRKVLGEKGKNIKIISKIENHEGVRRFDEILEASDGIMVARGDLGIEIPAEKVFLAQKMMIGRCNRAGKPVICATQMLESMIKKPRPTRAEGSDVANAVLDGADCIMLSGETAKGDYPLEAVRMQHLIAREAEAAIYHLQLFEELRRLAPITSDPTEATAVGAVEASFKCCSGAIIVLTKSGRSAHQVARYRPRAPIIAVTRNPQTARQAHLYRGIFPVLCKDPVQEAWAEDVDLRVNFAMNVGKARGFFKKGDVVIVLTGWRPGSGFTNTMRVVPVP

As to `COc1ccc(S(=O)(=O)c2ccc3c(=O)n(Cc4cc(F)cnc4O)ncc3c2)cc1` [Example 100, 2-((5-fluoro-2-hydroxypyridin-3-yl)methyl)-6-(4-methoxyphenylsulfonyl)phthalazin-1(2H)-one], in experiment [1], the Emax amounted to 70.8% and the pEC50 was 6.17. This compound had a pIC50 in experiment [2] of 7.13.

Consider `O=c1c2ccc(S(=O)(=O)c3ccccc3)cc2cnn1Cc1ccc2cn[nH]c2c1` [Example 58, 2-((1H-indazol-6-yl)methyl)-6-(phenylsulfonyl)phthalazin-1(2H)-one], for which, in experiment [1], the Emax came to 88.6% and the pEC50 is 6.32. The compound also had a pIC50 in experiment [2] of 7.38.

`COc1ccc(S(=O)(=O)c2ccc3c(=O)n(Cc4cccc(OC(F)F)c4)ncc3c2)cc1` [Example 40, 2-(3-(difluoromethoxy)benzyl)-6-((4-methoxyphenyl)sulfonyl)phthalazin-1(2H)-one]: in experiment [1], the Emax amounted to 90% and the pEC50 was 7.37. This compound showed a pIC50 in experiment [2] of 8.43.

On to `COc1ccc(S(=O)(=O)c2ccc3c(=O)n(Cc4cc[nH]n4)ncc3c2)cc1` [Example 6, 2-((1H-pyrazol-3-yl)methyl)-6-((4-methoxyphenyl)sulfonyl)phthalazin-1(2H)-one], for which, in experiment [1], the Emax was 109% and the pEC50 was 7.41. The pIC50 in experiment [2] was 8.77.

For the compound `COc1ccc(S(=O)(=O)c2ccc3c(=O)n(Cc4ccc(OC)nc4)ncc3c2)cc1` [Example 51, 6-((4-methoxyphenyl)sulfonyl)-2-((6-methoxypyridin-3-yl)methyl)phthalazin-1(2H)-one], in experiment [1], the Emax turned out to be 104% and the pEC50 is 7.62. This compound had a pIC50 in experiment [2] of 8.46.

`COc1ccc(S(=O)(=O)c2ccc3c(=O)n(Cc4cccc(OC)c4F)ncc3c2)cc1` [Example 52, 2-(2-fluoro-3-methoxybenzyl)-6-((4-methoxyphenyl)sulfonyl)phthalazin-1(2H)-one]: in experiment [1], the Emax came out at 101% and the pEC50 was 7.22. For the same compound, in experiment [2], the pIC50 was 8.72.

For the compound `CC(C)n1ccc(Cn2ncc3cc(S(=O)(=O)c4ccccc4)ccc3c2=O)n1` [Example 95, 2-((1-isopropyl-1H-pyrazol-3-yl)methyl)-6-(phenylsulfonyl)phthalazin-1(2H)-one], in experiment [1], the Emax came out at 116% and the pEC50 is 7.02. Further, the pIC50 in experiment [2] was 8.00.

Consider `O=c1c2ccc(S(=O)(=O)c3ccccc3)cc2cnn1Cc1cccnc1` [Example 65, 6-(phenylsulfonyl)-2-(pyridin-3-ylmethyl)phthalazin-1(2H)-one], for which, in experiment [1], the Emax amounted to 98.6% and the pEC50 is 6.44. In experiment [2], this compound showed a pIC50 of 7.76.

In the case of `O=c1c2ccc(S(=O)(=O)c3ccccc3)cc2cnn1Cc1cncc(O)c1` [Example 7, 2-((5-hydroxypyridin-3-yl)methyl)-6-(phenylsulfonyl)phthalazin-1(2H)-one], in experiment [1], the Emax came to 99.8% and the negative-log EC50 (pEC50) was 6.75. The compound further showed a pIC50 in experiment [2] of 8.17.

Turning to `O=c1c2ccc(S(=O)(=O)c3ccccc3)cc2cnn1C(CO)c1ccccc1` (stereo not drawn) [Example 19, 2-(2-hydroxy-1-phenylethyl)-6-(phenylsulfonyl)phthalazin-1(2H)-one], in experiment [1], the Emax was 65.3% and the pEC50 is 6.88. Besides, the pIC50 in experiment [2] is 8.38.

For the compound `CCn1ccc(Cn2ncc3cc(S(=O)(=O)c4ccccc4)ccc3c2=O)n1` [Example 11, 2-((1-ethyl-1H-pyrazol-3-yl)methyl)-6-(phenylsulfonyl)phthalazin-1(2H)-one], in experiment [1], the Emax came to 99% and the pEC50 is 7.14. Further, the pIC50 in experiment [2] is 8.41.

Take `Cn1cc(Cl)c(Cn2ncc3cc(S(=O)(=O)c4ccccc4)ccc3c2=O)n1` [Example 76, 2-((4-chloro-1-methyl-1H-pyrazol-3-yl)methyl)-6-(phenylsulfonyl)phthalazin-1(2H)-one]: in experiment [1], the Emax turned out to be 101% and the pEC50 is 6.98. Further, in experiment [2], the pIC50 is 8.39.

In the case of `CC1(C)Cc2cc(Cn3ncc4cc(S(=O)(=O)c5ccccc5)ccc4c3=O)ccc2O1` [Example 35, 2-((2,2-dimethyl-2,3-dihydrobenzofuran-5-yl)methyl)-6-(phenylsulfonyl)phthalazin-1(2H)-one], in experiment [1], the Emax stood at 110% and the negative logarithm of the EC50 (pEC50) was 6.74. Also, the pIC50 in experiment [2] was 7.98.

Take `O=c1c2ccc(S(=O)(=O)c3ccccc3)cc2cnn1Cc1ccccc1CCO` [Example 63, 2-(2-(2-hydroxyethyl)benzyl)-6-(phenylsulfonyl)phthalazin-1(2H)-one]: in experiment [1], the Emax turned out to be 101% and the pEC50 was 6.78. This compound also had a pIC50 in experiment [2] of 8.37.

As to `COc1ccc(S(=O)(=O)c2ccc3c(=O)n(Cc4ccc(C)nc4O)ncc3c2)cc1` [Example 98, 2-((2-hydroxy-6-methylpyridin-3-yl)methyl)-6-(4-methoxyphenylsulfonyl)phthalazin-1(2H)-one], in experiment [1], the Emax is 82% and the pEC50 is 6.59. The same compound showed a pIC50 in experiment [2] of 8.05.

In the case of `COc1ccccc1Cn1ncc2cc(S(=O)(=O)c3ccccc3)ccc2c1=O` [Example 79, 2-(2-methoxybenzyl)-6-(phenylsulfonyl)phthalazin-1(2H)-one], in experiment [1], the Emax turned out to be 90.2% and the pEC50 is 6.69. For the same compound, in experiment [2], the pIC50 is 7.71.

`COc1ccc(S(=O)(=O)c2ccc3c(=O)n(CCc4ccccc4)ncc3c2)cc1` [Example 44, 6-((4-methoxyphenyl)sulfonyl)-2-phenethylphthalazin-1(2H)-one]: in experiment [1], the Emax was 63% and the pEC50 is 6.44. This compound had a pIC50 in experiment [2] of 7.38.

Take `COc1ccc(S(=O)(=O)c2ccc3c(=O)n(Cc4c(F)ccnc4O)ncc3c2)cc1` [Example 103, 2-((4-fluoro-2-hydroxypyridin-3-yl)methyl)-6-(4-methoxyphenylsulfonyl) phthalazin-1(2H)-one]: in experiment [1], the Emax is 98.8% and the pEC50 is 7.38. In experiment [2], the pIC50 is 9.15.

Take `CNC(=O)c1occc1Cn1ncc2cc(S(=O)(=O)c3ccc(OC)cc3)ccc2c1=O` [Example 17, 3-((6-((4-methoxyphenyl)sulfonyl)-1-oxophthalazin-2(1H)-yl)methyl)-N-methylfuran-2-carboxamide]: in experiment [1], the Emax is 54.9% and the pEC50 was 6.95. For the same compound, the pIC50 in experiment [2] is 8.54.

Consider `COc1ccc(S(=O)(=O)c2ccc3c(=O)n(Cc4ccn(CCO)n4)ncc3c2)cc1` [Example 24, 2-((1-(2-hydroxyethyl)-1H-pyrazol-3-yl)methyl)-6-((4-methoxyphenyl)sulfonyl)phthalazin-1(2H)-one], for which, in experiment [1], the maximal effect (Emax) came out at 123% and the pEC50 is 6.97. In experiment [2], this compound had a pIC50 of 8.52.

As to `O=c1c2ccc(S(=O)(=O)c3ccccc3)cc2cnn1Cc1ccc2c(c1)OCCO2` [Example 29, 2-((2,3-dihydrobenzo[b][1,4]dioxin-6-yl)methyl)-6-(phenylsulfonyl)phthalazin-1(2H)-one], in experiment [1], the maximal effect (Emax) was found to be 85% and the pEC50 is 7.47. Further, the pIC50 in experiment [2] is 9.10.

As to `NC(=O)Cc1ccccc1Cn1ncc2cc(S(=O)(=O)c3ccccc3)ccc2c1=O` [Example 61, 2-(2-((1-oxo-6-(phenylsulfonyl)phthalazin-2(1H)-yl)methyl)phenyl)acetamide], in experiment [1], the Emax was 67.2% and the negative-log EC50 (pEC50) is 6.25. In addition, in experiment [2], the pIC50 was 7.80.

Consider `COc1ccc(S(=O)(=O)c2ccc3c(=O)n(Cc4n[nH]cc4C)ncc3c2)cc1` [Example 104, 6-((4-methoxyphenyl)sulfonyl)-2-((4-methyl-1H-pyrazol-3-yl)methyl)phthalazin-1(2H)-one], for which, in experiment [1], the Emax turned out to be 104% and the negative logarithm of the EC50 (pEC50) is 7.25. The compound also had a pIC50 in experiment [2] of 8.92.

In the case of `Cc1nc(Cn2ncc3cc(S(=O)(=O)c4ccccc4)ccc3c2=O)cs1` [Example 77, 2-((2-methylthiazol-4-yl)methyl)-6-(phenylsulfonyl)phthalazin-1(2H)-one], in experiment [1], the Emax is 106% and the pEC50 was 7.20. For the same compound, in experiment [2], the pIC50 is 8.40.

The values above are taken from patent US20260152487A1 (Sitryx Therapeutics Limited, priority 2021, published 2026).
